The record followed here is patent US12421245B2, “Pharmaceutically acceptable acid salt of free base of GLP1 receptor agonist, and preparation method therefor” (Hangzhou Zhongmei Huadong Pharmaceutical Co., Ltd., priority 2020, dated 2025).

Counter-ions that a name gives are not always drawn.

Holding throughout (assay type): physicochemical
The nature of data set [1]: Hygroscopicity, dynamic moisture adsorption (DVS) test. The following applies: for Moisture adsorption rate: DVS, 25° C., 80% RH; for Change of crystal form, yes/no: before and after the DVS test. The procedure:
5. Dynamic moisture adsorption (DVS):
Dynamic moisture adsorption (DVS) curves were collected on DVS Intrinsic of Surface Measurement Systems (SMS). The relative humidity at 25° C. was corrected with the deliquescent points of LiCl, Mg (NO3) 2 and KCl.
Five crystalline salts were subject to DVS test (25° C., 80% RH).

Data set [2] can be described thus: Assessment of pH solubility of crystalline salts in buffers. How it is done:
1) Assessment of pH Solubility The solubility of crystal form B of hydrochloride, crystal form C of p-toluenesulfonate, crystal form C of sulfate, and crystal form C of hydrobromide under different pH conditions were determined and compared, and the results were shown in Table 8. All the crystalline salts had low solubility in buffers of pH 3.0 and 5.0.

Data set [3] can be described thus: Assessment of solid stability (XRPD and HPLC after storage). The following applies: for Change of crystal form, yes/no: XRPD after 40° C./100% RH/7 d; for HPLC (area %) 40° C./100% RH/7 d: after 40° C./100% RH for 1 week; for HPLC (area %) Initiation: initial, before storage; for Stability relative to OAD2 dihydrochloride (in words): summary statement. The procedure:
The stability of crystal form B of hydrochloride, crystal form C of sulfate, crystal form C of p-toluenesulfonate and compound I was compared. After placement under a 40° C./100% RH condition for 1 week, physical and chemical stability was assessed by means of XRPD and HPLC, respectively, and the results were shown in Table 10.

With `CC[C@@H](c1ccccc1)N1Cc2cc3c(cc2C[C@H]1C(=O)N[C@@H](Cc1ccc(-c2ccnc(C)c2C)cc1)C(=O)O)OC[C@H](c1ccc(OCc2ccc(Cl)c(Cl)c2)cc1)O3` [OAD2 dihydrochloride, (S)-2-(3S,8S)-3-(4-(3,4-dichlorobenzyloxy)phenyl-7-((S)-1-phenylpropyl)-2,3,6,7,8,9-hexahydro-[1,4]-dioxino[2,3-g]isoquinolin-8-ylformylamino)-3-(4-(2,3-dimethylpyridin-4-yl)phenyl)propionic acid dihydrochloride, reference compound], the Moisture adsorption rate in data set [1] (dihydrochloride) is reported as 8.3%.
Broadly, the Solubility is the concentration that dissolves in the medium under given conditions. Take `CC[C@@H](c1ccccc1)N1Cc2cc3c(cc2C[C@H]1C(=O)N[C@@H](Cc1ccc(-c2ccnc(C)c2C)cc1)C(=O)O)OC[C@H](c1ccc(OCc2ccc(Cl)c(Cl)c2)cc1)O3` [Crystal form C of sulfate, (S)-2-(3S,8S)-3-(4-(3,4-dichlorobenzyloxy)phenyl-7-((S)-1-phenylpropyl)-2,3,6,7,8,9-hexahydro-[1,4]-dioxino[2,3-g]isoquinolin-8-ylformylamino)-3-(4-(2,3-dimethylpyridin-4-yl)phenyl)propionic acid]: the Solubility in data set [2] (pH 1.0) was 811 µg/mL; in data set [2] (pH 2.0) it was 74 µg/mL; in data set [2] (pH 3.0) it was 1 µg/mL; in data set [2] (pH 5.0), 1 µg/mL; in data set [2] (pH 7.0), 96 µg/mL. In addition, the Moisture adsorption rate in data set [1] came out at 3.2%. In addition, the “Change of crystal form, yes/no” value in data set [1] and in data set [3] was “No” throughout. In addition, the “HPLC (area %) 40° C./100% RH/7 d” value in data set [3] worked out at 98.78 area %. In data set [3], the “HPLC (area %) Initiation” value turned out to be 98.85 area %. In addition, the “Stability relative to OAD2 dihydrochloride (in words)” value in data set [3] was “superior stability relative to OAD2 dihydrochloride”.
Turning to `CC[C@@H](c1ccccc1)N1Cc2cc3c(cc2C[C@H]1C(=O)N[C@@H](Cc1ccc(-c2ccnc(C)c2C)cc1)C(=O)O)OC[C@H](c1ccc(OCc2ccc(Cl)c(Cl)c2)cc1)O3` [Crystal form C of p-toluenesulfonate, (S)-2-(3S,8S)-3-(4-(3,4-dichlorobenzyloxy)phenyl-7-((S)-1-phenylpropyl)-2,3,6,7,8,9-hexahydro-[1,4]-dioxino[2,3-g]isoquinolin-8-ylformylamino)-3-(4-(2,3-dimethylpyridin-4-yl)phenyl)propionic acid], the “Solubility compared with other crystalline salts (in words)” value in data set [2] (buffer of pH 1.0) was “significantly higher solubility than other crystalline salts”. Further, the Solubility in data set [2] (pH 1.0) turned out to be 1423 µg/mL; in data set [2] (pH 2.0) it was 118 µg/mL; in data set [2] (pH 3.0), 1 µg/mL; in data set [2] (pH 5.0) it was 1 µg/mL; in data set [2] (pH 7.0) it was 93 µg/mL. The compound further gave a Moisture adsorption rate in data set [1] of 0.6%. The “Change of crystal form, yes/no” value in data set [1] and in data set [3] was “No” in each case. The “Solid stability (in words)” value in data set [3] (40° C./100% RH, 1 week) is given as “the best stability”. Moreover, the “HPLC (area %) 40° C./100% RH/7 d” value in data set [3] came out at 98.87 area %. Moreover, the “HPLC (area %) Initiation” value in data set [3] came to 98.85 area %. Further, the “Stability relative to OAD2 dihydrochloride (in words)” value in data set [3] is listed as “superior stability relative to OAD2 dihydrochloride”.
As for `CC[C@@H](c1ccccc1)N1Cc2cc3c(cc2C[C@H]1C(=O)N[C@@H](Cc1ccc(-c2ccnc(C)c2C)cc1)C(=O)O)OC[C@H](c1ccc(OCc2ccc(Cl)c(Cl)c2)cc1)O3` [Crystal form C of hydrobromide, (S)-2-(3S,8S)-3-(4-(3,4-dichlorobenzyloxy)phenyl-7-((S)-1-phenylpropyl)-2,3,6,7,8,9-hexahydro-[1,4]-dioxino[2,3-g]isoquinolin-8-ylformylamino)-3-(4-(2,3-dimethylpyridin-4-yl)phenyl)propionic acid], the Solubility in data set [2] (pH 1.0) worked out at 496 µg/mL; in data set [2] (pH 2.0) it was 16 µg/mL; in data set [2] (pH 3.0), 1 µg/mL; in data set [2] (pH 5.0) it was 4 µg/mL; in data set [2] (pH 7.0) it was 39 µg/mL. In data set [1], the Moisture adsorption rate was found to be 1.4%. Besides, the “Change of crystal form, yes/no” value in data set [1] is “No”.
`CC[C@@H](c1ccccc1)N1Cc2cc3c(cc2C[C@H]1C(=O)N[C@@H](Cc1ccc(-c2ccnc(C)c2C)cc1)C(=O)O)OC[C@H](c1ccc(OCc2ccc(Cl)c(Cl)c2)cc1)O3` [Crystal form B of hydrochloride, (S)-2-(3S,8S)-3-(4-(3,4-dichlorobenzyloxy)phenyl-7-((S)-1-phenylpropyl)-2,3,6,7,8,9-hexahydro-[1,4]-dioxino[2,3-g]isoquinolin-8-ylformylamino)-3-(4-(2,3-dimethylpyridin-4-yl)phenyl)propionic acid]: the Solubility amounted to 381 µg/mL in data set [2] (pH 1.0); 17 µg/mL in data set [2] (pH 2.0); 2 µg/mL in data set [2] (pH 3.0); 1 µg/mL in data set [2] (pH 5.0); 109 µg/mL in data set [2] (pH 7.0). In data set [1], this compound displayed a Moisture adsorption rate of 0.8%. Besides, the “Change of crystal form, yes/no” value in data set [1] and in data set [3] was “No” in each case. For the same compound, the “HPLC (area %) 40° C./100% RH/7 d” value in data set [3] is 98.18 area %. Further, the “HPLC (area %) Initiation” value in data set [3] is recorded as 98.37 area %. The “Stability relative to OAD2 dihydrochloride (in words)” value in data set [3] is recorded as “superior stability relative to OAD2 dihydrochloride”.
